The results in this text go back to BindingDB's records for patent US20240343720 (Xizang Haisco Pharmaceutical, 2024).

This test has as its target AP2-associated protein kinase 1 (Homo sapiens, UniProt Q2M2I8). Nature of the test: In Vitro AAK1 Enzyme Activity Assay. The procedure: Compound stock solution (concentration: 10 mM, dissolved in DMSO) was diluted with DMSO to 0.2 mM and then diluted with DMSO in 5-fold gradient to obtain compound solutions with 10 concentrations. Subsequently, the compound solutions with different concentrations were diluted 50-fold in 1×kinase reaction buffer (containing 40 mM Tris, 20 mM MgCl2, 0.1% BSA and 0.5 mM DTT) for later use. AAK1 (Signalchem, Cat #A01-11G-10) was diluted with 1×kinase reaction buffer to 2-fold the final concentration (final concentrations: 30 nM and 28 nM). AAK1 was added to a 384-well white plate at 2 μL/well, and the compounds were then added at 1 μL/well. The plate was sealed with a plate-sealing film, centrifuged at 1000 rpm for 30 seconds and then placed at room temperature for 10 minutes. A mixed solution of ATP (Promega, Cat #V914B) and substrate Micro2 (GenScript, Cat #PE0890) was formulated at 4-fold the final concentration (for AAK1, the corresponding final concentrations of ATP: 15 μM and 5 μM, and the corresponding final concentration of Micro2: 0.1 mg/mL). To the reaction plate was added the mixed solution of ATP and the substrate at 1 μL/well.

Chain of AP2-associated protein kinase 1 (Q2M2I8 whole entry): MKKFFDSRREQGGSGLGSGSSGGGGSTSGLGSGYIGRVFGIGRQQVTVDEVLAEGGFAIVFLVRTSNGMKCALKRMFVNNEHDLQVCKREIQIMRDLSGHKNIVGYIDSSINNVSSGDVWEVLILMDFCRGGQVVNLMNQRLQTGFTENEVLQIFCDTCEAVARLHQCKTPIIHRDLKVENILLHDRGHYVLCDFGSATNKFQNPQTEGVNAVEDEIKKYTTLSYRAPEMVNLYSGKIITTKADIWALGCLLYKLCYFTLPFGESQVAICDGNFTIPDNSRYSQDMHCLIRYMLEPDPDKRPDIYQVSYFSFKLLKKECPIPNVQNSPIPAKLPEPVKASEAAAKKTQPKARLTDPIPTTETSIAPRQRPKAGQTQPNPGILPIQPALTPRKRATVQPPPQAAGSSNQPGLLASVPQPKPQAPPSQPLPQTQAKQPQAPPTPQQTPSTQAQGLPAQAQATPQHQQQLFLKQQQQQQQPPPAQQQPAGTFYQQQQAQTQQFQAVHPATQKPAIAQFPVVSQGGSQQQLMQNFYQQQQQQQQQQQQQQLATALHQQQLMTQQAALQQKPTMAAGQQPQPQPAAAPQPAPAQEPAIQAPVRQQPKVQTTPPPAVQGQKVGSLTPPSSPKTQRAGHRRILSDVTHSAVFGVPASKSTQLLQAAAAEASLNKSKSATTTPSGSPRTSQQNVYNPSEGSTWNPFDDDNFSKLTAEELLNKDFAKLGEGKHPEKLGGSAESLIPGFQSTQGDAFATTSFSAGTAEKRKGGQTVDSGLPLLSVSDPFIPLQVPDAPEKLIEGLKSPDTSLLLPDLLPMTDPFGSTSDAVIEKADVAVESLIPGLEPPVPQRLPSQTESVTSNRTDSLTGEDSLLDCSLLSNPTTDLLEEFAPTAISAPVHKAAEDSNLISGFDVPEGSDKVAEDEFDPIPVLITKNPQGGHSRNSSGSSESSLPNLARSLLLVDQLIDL

`C=C(C)C[C@](C)(N)COc1cnc(-c2ccnc(NC(=O)OC)c2)cc1C(F)F` [US20240343720, Compound 11] had an IC50 of 5.74 nM.

Usually IC50 stands for the midpoint of a concentration-inhibition curve. A low value points to greater potency.
